Measurements published in ChEMBL document CHEMBL4834480, “Discovery of 3,5-Dimethyl-4-Sulfonyl-1H-Pyrrole-Based Myeloid Cell Leukemia 1 Inhibitors with High Affinity, Selectivity, and Oral Bioavailability” (J Med Chem, 2021).
Active and inactive are the calls of the source. The calls are words filed in the database; no cut-off is given here.

Columns and labels:
[1] = biological target: Voltage-gated inwardly rectifying potassium channel KCNH2 (Homo sapiens, UniProt Q12809); test: Inhibition of human ERG
Chain of Voltage-gated inwardly rectifying potassium channel KCNH2 (Q12809 whole entry, the tested form may be a part): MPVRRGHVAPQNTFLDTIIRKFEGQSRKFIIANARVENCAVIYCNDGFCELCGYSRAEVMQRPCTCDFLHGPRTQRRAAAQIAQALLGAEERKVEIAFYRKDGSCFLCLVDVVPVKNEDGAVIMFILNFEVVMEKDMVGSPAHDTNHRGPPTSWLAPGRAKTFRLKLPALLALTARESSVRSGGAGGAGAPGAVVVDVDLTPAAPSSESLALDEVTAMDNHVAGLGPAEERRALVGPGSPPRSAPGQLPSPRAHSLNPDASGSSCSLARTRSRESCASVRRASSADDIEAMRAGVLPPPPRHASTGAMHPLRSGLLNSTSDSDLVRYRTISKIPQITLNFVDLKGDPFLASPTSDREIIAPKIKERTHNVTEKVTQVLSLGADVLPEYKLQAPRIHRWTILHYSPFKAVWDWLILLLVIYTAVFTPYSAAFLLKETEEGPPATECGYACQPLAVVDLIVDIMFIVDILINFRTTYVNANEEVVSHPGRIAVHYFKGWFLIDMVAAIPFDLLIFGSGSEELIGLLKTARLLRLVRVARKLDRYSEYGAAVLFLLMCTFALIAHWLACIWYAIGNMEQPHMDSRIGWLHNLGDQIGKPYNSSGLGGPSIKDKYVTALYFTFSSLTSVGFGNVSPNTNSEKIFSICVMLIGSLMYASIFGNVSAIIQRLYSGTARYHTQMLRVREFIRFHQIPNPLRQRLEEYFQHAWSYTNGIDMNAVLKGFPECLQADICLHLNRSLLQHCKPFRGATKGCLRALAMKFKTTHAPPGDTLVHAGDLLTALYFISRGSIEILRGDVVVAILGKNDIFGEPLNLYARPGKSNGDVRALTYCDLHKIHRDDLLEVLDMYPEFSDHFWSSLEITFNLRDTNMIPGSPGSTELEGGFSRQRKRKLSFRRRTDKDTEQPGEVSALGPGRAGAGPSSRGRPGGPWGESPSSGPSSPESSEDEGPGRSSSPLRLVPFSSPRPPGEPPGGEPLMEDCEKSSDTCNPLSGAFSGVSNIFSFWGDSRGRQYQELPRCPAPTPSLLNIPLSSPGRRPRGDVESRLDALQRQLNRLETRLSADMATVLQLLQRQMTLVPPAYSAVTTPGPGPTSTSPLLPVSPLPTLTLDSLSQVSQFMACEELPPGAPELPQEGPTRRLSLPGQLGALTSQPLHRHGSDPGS

[2] = biological target: T1, Apoptosis regulator Bcl-2 (Homo sapiens, UniProt P10415); test: Binding affinity to human partial length BCL2 (M1 to D211 residues) expressed in bacterial expression system by BCL2SCAN assay
T1 sequence (P10415 whole entry, the tested form may be a part): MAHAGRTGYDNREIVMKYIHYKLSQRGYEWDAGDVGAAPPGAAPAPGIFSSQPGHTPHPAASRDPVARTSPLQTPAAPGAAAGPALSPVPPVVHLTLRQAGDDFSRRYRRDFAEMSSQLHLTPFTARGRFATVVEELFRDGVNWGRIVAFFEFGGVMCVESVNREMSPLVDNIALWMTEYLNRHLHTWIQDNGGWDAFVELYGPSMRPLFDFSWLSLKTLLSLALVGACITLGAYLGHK

[3] = Toxicity in BALB/c nude mouse xenografted with human MV4-11 cells assessed as effect on body weight at 20 mg/kg, ip administered every two days for 14 days; assay type: organism-based; settings: in vivo, 336 h, time 14 day
NCI-H929 [4] = test: Induction of apoptosis in human NCI-H929 cells assessed as activation of caspase 3 after 4 hrs by luminescence based microplate reader assay; assay type: functional, cell-based; settings: dose microM <=5, time 4.0 hrs
[5] = biological target: T2, Bcl-2-related protein A1 (Homo sapiens) (UniProt Q16548); test: Inhibition of FITC-labeled Bak BH3 peptide binding to GST-tagged BFL1 (1 to 151 residues) (unknown origin) expressed in Escherichia coli BL21 (DE3) at 10 uM incubated for 30 mins fluorescence polarization-based competitive binding assay relative to control
T2 sequence (whole entry): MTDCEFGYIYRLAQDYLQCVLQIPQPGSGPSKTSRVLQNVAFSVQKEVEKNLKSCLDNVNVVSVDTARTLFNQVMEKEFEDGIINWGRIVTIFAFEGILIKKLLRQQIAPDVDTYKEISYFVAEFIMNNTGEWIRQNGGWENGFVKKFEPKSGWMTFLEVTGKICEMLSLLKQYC

[6] = Toxicity in BALB/c nude mouse xenografted with human MV4-11 cells assessed as effect on body weight at 60 mg/kg, po administered every two days for 14 days; assay type: organism-based; settings: in vivo, 336 h, time 14 day
MV4-11 [7] = test: Antitumor activity against human MV4-11 cells xenografted in BALB/c nude mouse assessed as tumor growth inhibition by measuring T/C ratio at 60 mg/kg, po administered every two days for 14 days relative to control; assay type: functional; settings: time 14 day
[8] = Stability of the compound in simulated intestinal fluid assessed as parent compound remaining measured after 6 hrs; assay type: ADME; settings: read-out: Stabilty
[9] = Toxicity in BALB/c nude mouse xenografted with human MV4-11 cells assessed as effect on liver weight at 60 mg/kg, po administered every two days for 14 days; assay type: organism-based; settings: in vivo, 336 h, time 14 day
MV4-11 [10] = test: Induction of apoptosis in human MV4-11 cells xenografted in BALB/c nude mouse assessed as induction of PARP cleavage at 60 mg/kg, po administered every two days for 14 days by Western blot analysis; assay type: functional, organism-based; settings: time 14.0 day
P-gp [11] = biological target: T3, P-gp (Homo sapiens, UniProt P08183); test: Substrate activity at P-gp in human Caco-2 cells assessed as permeability across apical to basolateral membrane by LC-MS/MS analysis; assay type: ADME, cell-based; settings: read-out: permeability
T3 sequence (P08183 whole entry): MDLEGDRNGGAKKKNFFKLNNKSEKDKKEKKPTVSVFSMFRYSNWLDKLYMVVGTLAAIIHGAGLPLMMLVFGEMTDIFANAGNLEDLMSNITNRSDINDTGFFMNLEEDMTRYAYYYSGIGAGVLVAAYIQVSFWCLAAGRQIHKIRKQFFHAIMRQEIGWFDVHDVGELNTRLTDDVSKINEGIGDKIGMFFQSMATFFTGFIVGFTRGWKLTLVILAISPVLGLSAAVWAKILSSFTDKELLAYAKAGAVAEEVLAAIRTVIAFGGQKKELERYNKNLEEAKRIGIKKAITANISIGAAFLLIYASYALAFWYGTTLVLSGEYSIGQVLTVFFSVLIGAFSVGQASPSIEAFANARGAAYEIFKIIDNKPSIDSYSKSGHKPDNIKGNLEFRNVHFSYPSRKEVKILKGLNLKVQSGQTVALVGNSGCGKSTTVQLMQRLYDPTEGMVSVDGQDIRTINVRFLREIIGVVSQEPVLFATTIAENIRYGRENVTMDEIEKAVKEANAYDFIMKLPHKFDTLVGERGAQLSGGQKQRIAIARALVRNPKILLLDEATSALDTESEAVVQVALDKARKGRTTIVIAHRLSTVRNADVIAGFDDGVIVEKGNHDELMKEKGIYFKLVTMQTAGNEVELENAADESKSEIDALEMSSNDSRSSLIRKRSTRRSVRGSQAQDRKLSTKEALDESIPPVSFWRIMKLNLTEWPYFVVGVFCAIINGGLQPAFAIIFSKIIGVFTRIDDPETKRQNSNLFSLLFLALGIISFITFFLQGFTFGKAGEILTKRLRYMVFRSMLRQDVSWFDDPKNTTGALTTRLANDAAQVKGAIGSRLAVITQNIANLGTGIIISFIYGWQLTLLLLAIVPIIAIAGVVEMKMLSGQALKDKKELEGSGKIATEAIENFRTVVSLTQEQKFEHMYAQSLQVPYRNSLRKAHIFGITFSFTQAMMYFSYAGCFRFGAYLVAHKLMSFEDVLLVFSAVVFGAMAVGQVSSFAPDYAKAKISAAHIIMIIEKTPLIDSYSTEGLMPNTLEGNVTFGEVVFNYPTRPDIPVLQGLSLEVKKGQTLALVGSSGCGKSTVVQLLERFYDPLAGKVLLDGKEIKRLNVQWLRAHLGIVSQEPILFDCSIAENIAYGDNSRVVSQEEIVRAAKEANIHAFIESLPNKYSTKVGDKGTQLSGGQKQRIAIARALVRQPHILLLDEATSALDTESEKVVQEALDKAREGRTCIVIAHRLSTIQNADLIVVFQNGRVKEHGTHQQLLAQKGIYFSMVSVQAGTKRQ

[12] = Toxicity in BALB/c nude mouse xenografted with human MV4-11 cells assessed as effect on heart weight at 60 mg/kg, po administered every two days for 14 days; assay type: organism-based; settings: in vivo, 336 h, time 14 day
[13] = Half life in Sprague-Dawley rat at 3 mg/kg, iv measured up to 24 hrs by LC-MS/MS analysis; assay type: ADME, organism-based; settings: in vivo
[14] = biological target: T4, Induced myeloid leukemia cell differentiation protein Mcl-1 (Homo sapiens, UniProt Q07820); test: Inhibition of FITC-labeled Bak BH3 peptide binding to GST-tagged MCL1 (171 to 327 residues) (unknown origin) expressed in Escherichia coli BL21 (DE3) incubated for 30 mins fluorescence polarization-based competitive binding assay
T4 sequence (Q07820 whole entry, the tested form may be a part): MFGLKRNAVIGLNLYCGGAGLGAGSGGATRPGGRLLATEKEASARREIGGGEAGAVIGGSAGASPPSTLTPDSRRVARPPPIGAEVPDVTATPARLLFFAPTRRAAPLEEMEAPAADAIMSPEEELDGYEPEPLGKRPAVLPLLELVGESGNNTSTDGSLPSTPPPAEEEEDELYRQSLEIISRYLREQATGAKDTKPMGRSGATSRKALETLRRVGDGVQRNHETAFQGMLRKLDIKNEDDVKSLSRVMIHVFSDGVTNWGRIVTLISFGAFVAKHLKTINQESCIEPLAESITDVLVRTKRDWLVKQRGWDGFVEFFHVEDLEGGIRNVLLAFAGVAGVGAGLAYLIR

P-gp [15] = biological target: T3, P-gp; test: Substrate activity at P-gp in human Caco-2 cells assessed as efflux ratio of permeability by LC-MS/MS analysis; assay type: ADME, cell-based
K562 [16] = test: Antiproliferative activity against human K562 cells assessed as decrease in cell viability measured after 72 hrs by MTT assay; assay type: functional, cell-based; settings: K562, 72 h
[17] = Clearance in Sprague-Dawley rat at 3 mg/kg, iv measured up to 24 hrs by LC-MS/MS analysis; assay type: ADME, organism-based; settings: in vivo
[18] = Toxicity in BALB/c nude mouse xenografted with human MV4-11 cells assessed as effect on liver at 60 mg/kg, po administered every two days for 14 days by hematoxyin-eosin staining based analysis; assay type: organism-based; settings: in vivo, 336 h, time 14 day
[19] = Half life in human liver microsomes; assay type: ADME, Microsome
[20] = Toxicity in BALB/c nude mouse xenografted with human MV4-11 cells assessed as effect on heart at 20 mg/kg, ip administered every two days for 14 days by hematoxyin-eosin staining based analysis; assay type: organism-based; settings: in vivo, 336 h, time 14 day
MV4-11 [21] = test: Antitumor activity against human MV4-11 cells xenografted in BALB/c nude mouse assessed as tumor growth inhibition by measuring T/C ratio at 20 mg/kg, ip administered every two days for 14 days relative to control; assay type: functional; settings: time 14 day
[22] = Stability of the compound in simulated gastric fluid assessed as parent compound remaining measured after 6 hrs; assay type: ADME; settings: read-out: Stabilty
K562 [23] = test: Induction of apoptosis in human K562 cells assessed as activation of caspase 7 up to 5 uM after 4 hrs by luminescence based microplate reader assay; assay type: functional, cell-based; settings: dose microM <=5, time 4.0 hrs
[24] = biological target: T1, Apoptosis regulator Bcl-2; test: Inhibition of FITC-labeled Bak BH3 peptide binding to GST-tagged BCL2 (1 to 205 residues) (unknown origin) expressed in Escherichia coli BL21 (DE3) at 10 uM incubated for 30 mins fluorescence polarization-based competitive binding assay relative to control
NCI-H929 [25] = test: Induction of apoptosis in human NCI-H929 cells assessed as activation of caspase 7 after 4 hrs by luminescence based microplate reader assay; assay type: functional, cell-based; settings: dose microM <=5, time 4.0 hrs
[26] = Toxicity in BALB/c nude mouse xenografted with human MV4-11 cells assessed as effect on liver weight at 20 mg/kg, ip administered every two days for 14 days; assay type: organism-based; settings: in vivo, 336 h, time 14 day
[27] = biological target: T4, Induced myeloid leukemia cell differentiation protein Mcl-1; test: Displacement of BAK from MCL1 in human NCI-H929 cells after 4 hrs by co-immunoprecipitation assay; assay type: cell-based; settings: dose 0.1-0.5 µM
[28] = Cmax in Sprague-Dawley rat at 10 mg/kg, po measured up to 24 hrs by LC-MS/MS analysis; assay type: ADME, organism-based; design: route oral, dose 10 mg/kg, time <=24; settings: in vivo
[29] = Permeability of the compound at pH 7.4 measured after 4 hrs by PAMPA assay; assay type: ADME; settings: read-out: permeability
[30] = Stability in rat liver microsomes assessed as parent compound remaining preincubated for 5 mins followed by NADPH addition and measured after 30 mins by LC-MS/MS analysis; assay type: ADME, Microsome; settings: time 35 min, read-out: Stabilty
[31] = Stability of the compound in human plasma assessed as parent compound remaining measured after 2 hrs by LC-MS/MS analysis; assay type: ADME, cell-free; settings: read-out: Stabilty
[32] = Toxicity in BALB/c nude mouse xenografted with human MV4-11 cells assessed as effect on kidney at 60 mg/kg, po administered every two days for 14 days by hematoxyin-eosin staining based analysis; assay type: organism-based; settings: in vivo, 336 h, time 14 day
MV4-11 [33] = test: Antiproliferative activity against human MV4-11 cells assessed as decrease in cell viability measured after 72 hrs by MTT assay; assay type: functional, cell-based; settings: MV4-11, 72 h
Bcl-2-related protein A1 = biological target: T5, Bcl-2-related protein A1 (Homo sapiens, UniProt Q16548); test: Binding affinity to human partial length BCL2A1 (M1 to G153 residues) expressed in bacterial expression system by BCL2SCAN assay
T5 sequence (Q16548 whole entry): T2 sequence (whole entry)

## CC(=O)c1ccc(S(=O)(=O)c2c(C)c(C(=O)O)n(CCCOc3cc(C)c(Cl)c(C)c3)c2C)cc1
[1]
  IC50: > 30 µM
[2]
  Kd: > 10 µM
[3]
  Activity: Non-Toxic
NCI-H929 [4]
  Activity: Dose-Dependent Effect
[5]
  inhibition: 1.57%
[6]
  Activity: Non-Toxic
MV4-11 [7]
  T/C: 37.3%
[8]
  remaining at 6 h: 85.2%
[9]
  Activity: Non-Toxic
MV4-11 [10]
  Activity: Active
P-gp [11]
  Papp A→B: 3.62 ×10⁻⁶ cm/s
[12]
  Activity: Non-Toxic
[13]
  half-life: 2.3 h
[14]
  Ki: 0.02 µM
P-gp [15]
  efflux ratio: 0.1
K562 [16]
  IC50: > 30 µM
[17]
  clearance: 15.2 mL/min/kg
[18]
  Activity: Non-Toxic
[19]
  half-life: 0.83 h
[20]
  Activity: Non-Toxic
MV4-11 [21]
  T/C: 5.52%
[22]
  remaining at 6 h: 84.5%
K562 [23]
  Activity: inactive
[24]
  inhibition: 10%
NCI-H929 [25]
  Activity: Dose-Dependent Effect
[26]
  Activity: Non-Toxic
[27]
  inhibition: Dose-Dependent Effect
[28]
  Cmax: 2010 ng/mL
[29]
  Papp at 4 h: 52.6 ×10⁻⁶ cm/s
[30]
  remaining at 0.5 h: 58.1%
[31]
  remaining at 2 h: 96.5%
[32]
  Activity: Non-Toxic
MV4-11 [33]
  IC50: 0.7 µM
Bcl-2-related protein A1
  Kd: > 10 µM
